Where two headings read alike, the source gives them in different places.

The subject of experiment [1] is MCF7 TDX/1011 cells (MCF7 TDX selected for resistance to NB1011). Briefly: alamarBlue cytotoxicity, MCF7 TDX/1011. The format is cell-based, human. The method, then:
(§1) Growth Inhibition Studies. Cells growing exponentially were transferred to 384-well flat bottom tissue culture plates. All cell types were plated at a density of 500 cells per well in 25 μL of complete medium (RPMI 1640+10% fetal bovine serum+antibiotics/antimycotics). After 24 hours (day 0), 25 μL of complete medium containing the experimental compounds over the dose range of 10^ñ3 to 10^ñ10 M were added in triplicate. […] 5 μL of the redox indicator, alamarBlue, was added to each well (10% v/v). After 4 hours incubation at 37° C., fluorescence was monitored at 535 nm excitation and 595 nm emission.
(§2) Concentration vs. relative fluorescence units (RFU) were plotted, and sigmoid curves were fit using the Hill equation.
(§3) Reversal of Resistance. The origin and characteristics of the human breast cancer MCF7 TDX cell line have been previously described (Drake, et al. (1996)). Briefly, MCF-7 breast cancer cells were selected in vitro for resistance to Tomudex by continuous exposure to stepwise increases in TDX concentrations up to 2.0 μM. […] After a dramatic initial cell killing effect, resistant colonies emerged, and vigorously growing monolayers were formed. TS protein level and IC50 for 5-FU, TDX, and NB1011 were determined for the resultant MCF7 TDX/1011 cell line as described in above by western blot and the alamarBlue cytotoxicity assay, respectively.

Experiment [2] has as its system H527 (Skin) normal cells. In words: alamarBlue growth inhibition, H527. The class given is cell-based, human. As to conditions: 120 hours. The method, then:
as §1, §2

Experiment [3] deals with MCF7 TDX (Tomudex-resistant MCF7 breast cancer cells). In words: alamarBlue cytotoxicity, MCF7 TDX. The format is cell-based, human. The method, then:
as §1, §2, §3
In general terms: Resazurin is reduced to fluorescent resorufin, in cell work by metabolically active cells.

Experiment [4] concerns collagen induced arthritis. In words: Collagen induced arthritis in DBA/1 mice. The format is in vivo, mouse. Conditions: vs saline-treated control; NB1011 2.5 mg per day intraperitoneal.
Procedure: Arthritis was induced in male DBA/1 mice (8-10 weeks old) by intradermal injection of bovine type II collagen, purified in-house at the Kennedy Institute of Rheumatology as previously described (Miller, E. J. et al. (1972)). Collagen was administered in complete Freund's adjuvant (Difco, Detroit, Mich.). Onset of arthritis is expected to be variable. Arthritis onset is considered to occur on the day that swelling and/or erythema were observed. Clinical score is a composite of disease severity and the number of limbs affected, and is monitored daily from onset of disease and used as an assessment of disease progress. An example for scoring is: 0, Normal; 1, slight swelling with erythema; 2, pronounced swelling; 3, joint rigidity. In addition, the extent of paw swelling reflects the degree of edema in affected limbs.
NB1011 was administered daily by intraperitoneal administration at 2.5 mg total dose per day.
Following immunization with collagen, mice were maintained until a significant clinical score for disease progression was achieved (between 2.5 and 3.5). Mice were then treated with control saline injections, NB1011, or with anti-TNF antibody as a positive control. […] Paw swelling is an alternative measure of CIA disease severity.
For experiment [5], the system named is N1S1 cells, 5FU selection. Briefly: alamarBlue cytotoxicity, N1S1 5FU-selected. The class given is cell-based. Conditions: N1S1, Drug Selection 5FU; read-out: NB1011-IC50. The method, then: as §1, §2
Cells were grown and characterized as described above. TS expression level is relative to CCD18co, a normal colon epithelial cell line. Tritium release is background substracted as described in Methods. ND=Not detectable above background.

The subject of experiment [6] is DET551 (Skin) normal cells. In words: alamarBlue growth inhibition, DET551. As to conditions: 120 hours. The class given is cell-based, human. The method, then:
as §1, §2

Experiment [7] has as its system HCTC (Colon) tumor cells. Briefly: alamarBlue growth inhibition, HCTC. The format is cell-based, human. Conditions: 120 hours. How it is done: as §1, §2

The IC50 is the midpoint of a concentration-inhibition curve. Take “5-(2-Bromovinyl)-2′-deoxyuridine phenyl N-methoxy-L-alaninyl phosphoramidate [NB1011]”: the IC50 is 240 µM in experiment [1]; 273 µM in experiment [2]; 2.8 µM in experiment [3] (MCF7 Breast cancer, Drug Selection TDX, read-out: NB1011-IC50); 2 µM in experiment [3] (MCF7 TDX, alamarBlue, read-out: IC50); 204 µM in experiment [5]; 262 µM in experiment [6]. Besides, the IC50 in experiment [7] was 280 µM. The “clinical score (disease suppression)” value in experiment [4] is reported as “significant disease suppression”. Further, in experiment [4], the “paw swelling (disease suppression)” value is “significant disease suppression”.

Source of the values: patent publication US7462605B2, “Phosphoramidate compounds and methods of use” (Celmed Oncology (USA), Inc., priority 2002, dated 2008).
